The source made the active and inactive calls. The calls are words filed in the database; no cut-off is given here.
How the values were obtained:
[1] = target: T1, Acid-sensing ion channel 3 (Homo sapiens, UniProt Q9UHC3); test: Inhibition of ASIC3 assessed as inhibition of peak current by electrophysiology method
T1 sequence (Q9UHC3 whole entry): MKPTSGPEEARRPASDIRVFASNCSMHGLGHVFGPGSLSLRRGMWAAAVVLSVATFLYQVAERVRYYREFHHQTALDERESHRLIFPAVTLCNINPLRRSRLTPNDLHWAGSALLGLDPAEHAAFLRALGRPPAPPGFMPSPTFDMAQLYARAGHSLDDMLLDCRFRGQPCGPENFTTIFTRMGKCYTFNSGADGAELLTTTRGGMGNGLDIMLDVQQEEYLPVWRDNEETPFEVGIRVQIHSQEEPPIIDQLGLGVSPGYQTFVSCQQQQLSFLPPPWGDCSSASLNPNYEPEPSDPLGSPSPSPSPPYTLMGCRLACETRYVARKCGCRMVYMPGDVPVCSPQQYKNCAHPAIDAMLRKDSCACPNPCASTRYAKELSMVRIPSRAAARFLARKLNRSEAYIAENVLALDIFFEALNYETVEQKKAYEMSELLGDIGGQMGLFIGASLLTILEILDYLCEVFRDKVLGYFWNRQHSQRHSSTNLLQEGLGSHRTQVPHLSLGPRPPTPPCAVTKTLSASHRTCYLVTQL

[2] = Inhibition of serotonin receptor
[3] = Inhibition of adrenergic receptor
[4] = Ratio of drug level in brain to plasma in […]; type: ADME; conditions: rat, read-out: BPR
[5] = Inhibition of dopamine receptor
[6] = Inhibition of muscarinic receptor
Brain = test: Drug uptake in Sprague-Dawley rat brain at 100 mg/kg, po; type: ADME, organism-based; design: dose 100 mg/kg, route oral; conditions: in vivo, read-out: Drug uptake
[7] = target: T2, Acid-sensing ion channel 1 (Homo sapiens, UniProt P78348); test: Inhibition of ASIC1a
T2 sequence (P78348 whole entry): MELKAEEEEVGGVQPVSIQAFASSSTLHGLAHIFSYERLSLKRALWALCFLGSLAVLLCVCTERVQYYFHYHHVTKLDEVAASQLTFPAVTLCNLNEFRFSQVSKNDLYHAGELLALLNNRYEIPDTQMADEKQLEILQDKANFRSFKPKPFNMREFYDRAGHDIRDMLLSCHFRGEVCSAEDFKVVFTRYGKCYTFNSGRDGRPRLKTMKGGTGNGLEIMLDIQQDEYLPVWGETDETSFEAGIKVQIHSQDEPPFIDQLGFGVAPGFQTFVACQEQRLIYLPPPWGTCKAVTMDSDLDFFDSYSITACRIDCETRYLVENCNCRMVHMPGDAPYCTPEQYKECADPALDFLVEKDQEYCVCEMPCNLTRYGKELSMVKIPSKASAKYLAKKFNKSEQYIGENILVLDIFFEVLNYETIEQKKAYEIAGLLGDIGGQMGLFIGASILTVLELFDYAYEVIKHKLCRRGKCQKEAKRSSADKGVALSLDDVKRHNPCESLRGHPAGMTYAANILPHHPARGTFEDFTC

[8] = Plasma concentration in Sprague-Dawley rat at 100 mg/kg, po after 30 mins; type: ADME, organism-based; design: dose 100 mg/kg, route oral
[9] = Ratio of drug level in brain to plasma in Sprague-Dawley rat at 100 mg/kg, po; type: ADME, organism-based; design: dose 100 mg/kg, route oral; conditions: read-out: BPR
Rattus norvegicus [10] = test: Induction of sedative activity in Sprague-Dawley rat at 100 mg/kg, po; type: organism-based; design: dose 100 mg/kg, route oral; conditions: in vivo
Rattus norvegicus [11] = test: Antihyperalgesic effect in complete Freund's adjuvant-induced Sprague-Dawley rat inflammatory pain model assessed as reversal of mechanical hypersensitivity at 100 mg/kg, po after 30 mins; type: functional, organism-based; design: dose 100 mg/kg
Rattus norvegicus [12] = test: Toxicity in Sprague-Dawley rat brain assessed as lethargy at 100 mg/kg, po; type: organism-based; design: dose 100 mg/kg, route oral; conditions: in vivo

SMILES | IC50 [1] | also measured
CC(c1cccc(C#Cc2ccc3c(Cl)c(CN)sc3c2)c1)N(C)C (stereo unspecified) | 4300 nM | –
NCc1ccc2cc(C#Cc3ccccc3)ccc2c1 | 4800 nM | –
CC(C)(C)OC(=O)N1CCc2ccc(C#Cc3ccc4c(Cl)c(CN)sc4c3)cc2C1 | > 50000 nM | –
NCc1sc2cc(C#Cc3ccc4c(c3)CN(CC(F)F)CC4)ccc2c1Cl | 10200 nM | –
NCc1sc2cc(C#Cc3ccc4c(c3)CN(Cc3ccccc3)CC4)ccc2c1Cl | 17100 nM | –
N=C(N)c1ccc2cc(C#Cc3ccccc3)ccc2c1 | 6300 nM | –
NCc1sc2cc(C#Cc3ccc4c(c3)CN(CC(F)(F)F)CC4)ccc2c1Cl | > 50000 nM | –

These reach a lower IC50 [1]. Values come first.

IC50 [1] | SMILES | also measured
310 nM | CC(C)N1CCc2ccc(C#Cc3ccc4c(Cl)c(CN)sc4c3)cc2C1 | –
230 nM | CN(C)C1CCCc2c(C#Cc3ccc4c(Cl)c(CN)sc4c3)cccc21 (stereo unspecified) | –
230 nM | CCN1CCc2ccc(C#Cc3ccc4c(Cl)c(CN)sc4c3)cc2C1 | –
2500 nM | NCc1sc2cc(C#Cc3cccc4c3CCCC4N3CCCC3)ccc2c1Cl (stereo unspecified) | –
680 nM | CN1CCc2ccc(C#Cc3ccc4c(Cl)c(CN)sc4c3)cc2C1 | –
2800 nM | NCc1sc2cc(C#Cc3ccccc3)ccc2c1Cl | –
460 nM | CC(C)C1c2cc(C#Cc3ccc4cc(C(=N)N)ccc4c3)ccc2CCN1C (stereo unspecified) | IC50 [2]: < 10 µM; IC50 [3]: < 10 µM; Kp [4]: 2.6; IC50 [5]: < 10 µM; IC50 [6]: < 10 µM
190 nM | CN(C)C1CCc2c(C#Cc3ccc4c(Cl)c(CN)sc4c3)cccc21 (stereo unspecified) | –
270 nM | CC1c2cc(C#Cc3ccc4c(Cl)c(CN)sc4c3)ccc2CCN1C (stereo unspecified) | –
220 nM | NCc1sc2cc(C#Cc3ccc4c(c3)CNCC4)ccc2c1Cl | concentration (Brain): 14 µM; IC50 [7]: 224 nM; concentration at 0.5 h [8]: 3.6 µM; Kp [4]: 15.4; Kp [9]: 6; Activity (Rattus norvegicus [10]): Toxic; Activity (Rattus norvegicus [11]): Active; Activity (Rattus norvegicus [12]): Toxic
3400 nM | N=C(N)c1sc2cc(C#Cc3ccccc3)ccc2c1Cl | –
